In patent publication US8703701B2 (Indiana University Research and Technology Corporation, priority 2009, dated 2014):
Starred links: 1 amine or outer side, 2 acyl side, 3 side chain; linkers in the order of their positions; H or OH if unused. Non-standard residues stand in square brackets, D forms with d. Residues, ends and D or L forms follow the SMILES beside them. Groups on a side chain read outwards from the residue. *: point of attachment. γGlu = O=C(O)[C@H](CCC(=O)[*:2])N[*:1]; Palmitoyl = CCCCCCCCCCCCCCCC(=O)*; Aib = CC(C)(N)C(=O)O

What was measured:
glucagon receptor = target: T1, glucagon receptor (Homo sapiens, UniProt P47871); test: cAMP induction, firefly luciferase reporter assay, glucagon receptor; format: cell-based; conditions: compared to native glucagon
T1 construct: expressed in transfected cells; host or cells: HEK293
Experimental: (§1) The ability of each peptide to induce cAMP was measured in a firefly luciferase-based reporter assay.
(§2) At the end of the incubation, 100 μL of LucLite luminescence substrate reagent (Perkin Elmer, Wellesley, Mass.) were added to each well. The plate was shaken briefly, incubated 10 min in the dark and light output was measured on MicroBeta-1450 liquid scintillation counter (Perkin-Elmer, Wellesley, Mass.).

GLP-1 receptor = target: T2, GLP-1 receptor (Homo sapiens, UniProt P43220); test: cAMP induction, firefly luciferase reporter assay, GLP-1 receptor; format: cell-based; conditions: for Activity at GLP-1 Receptor % Relative Activity: compared to native GLP-1
T2 construct: expressed in transfected cells; host or cells: HEK293
Experimental: as §1, §2

[1] = Activity at GLP-1 Receptor EC50 (nM), Table 2B

T2 sequence (P43220 24-463): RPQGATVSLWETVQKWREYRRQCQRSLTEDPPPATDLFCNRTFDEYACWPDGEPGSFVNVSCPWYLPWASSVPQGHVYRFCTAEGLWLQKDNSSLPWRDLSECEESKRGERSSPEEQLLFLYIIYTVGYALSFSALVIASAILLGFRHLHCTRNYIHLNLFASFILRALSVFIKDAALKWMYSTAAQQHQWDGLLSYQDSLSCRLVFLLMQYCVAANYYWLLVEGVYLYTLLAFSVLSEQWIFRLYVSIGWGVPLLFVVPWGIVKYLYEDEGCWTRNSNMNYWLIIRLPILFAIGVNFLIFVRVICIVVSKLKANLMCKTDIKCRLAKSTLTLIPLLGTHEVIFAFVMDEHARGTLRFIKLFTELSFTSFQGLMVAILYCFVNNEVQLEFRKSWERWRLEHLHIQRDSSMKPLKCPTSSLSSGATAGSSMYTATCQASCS
T1 sequence (P47871 26-477): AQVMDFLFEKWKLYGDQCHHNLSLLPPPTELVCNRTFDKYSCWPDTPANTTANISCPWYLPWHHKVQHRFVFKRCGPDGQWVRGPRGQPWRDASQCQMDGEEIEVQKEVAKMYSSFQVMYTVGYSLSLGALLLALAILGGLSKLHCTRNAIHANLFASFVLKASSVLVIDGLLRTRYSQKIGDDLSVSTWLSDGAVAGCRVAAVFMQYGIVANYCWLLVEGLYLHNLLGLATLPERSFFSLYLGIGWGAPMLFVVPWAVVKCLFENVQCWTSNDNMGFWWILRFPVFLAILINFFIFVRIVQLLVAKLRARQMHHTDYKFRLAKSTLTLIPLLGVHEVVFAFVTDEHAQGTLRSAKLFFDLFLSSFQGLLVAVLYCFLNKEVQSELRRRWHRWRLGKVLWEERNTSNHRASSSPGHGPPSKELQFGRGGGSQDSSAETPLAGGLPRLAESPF

In the case of `CCCCCCCCCCCCCCCC(=O)N[C@@H](CCC(=O)NCCCC[C@H](NC(=O)[C@H](CC(=O)O)NC(=O)[C@H](CO)NC(=O)[C@@H](NC(=O)[C@H](Cc1ccccc1)NC(=O)[C@@H](NC(=O)CNC(=O)[C@H](CCC(N)=O)NC(=O)[C@@H](CO)NC(=O)[C@@H](N)Cc1c[nH]cn1)[C@@H](C)O)[C@@H](C)O)C(=O)N[C@@H](CO)C(=O)N[C@@H](CCCCN)C(=O)N[C@@H](Cc1ccc(O)cc1)C(=O)N[C@@H](CC(C)C)C(=O)N[C@@H](CC(=O)O)C(=O)N[C@@H](CCC(=O)O)C(=O)N[C@@H](CCC(N)=O)C(=O)N[C@@H](C)C(=O)N[C@@H](C)C(=O)N[C@@H](CCCCN)C(=O)N[C@@H](CCC(=O)O)C(=O)N[C@@H](Cc1ccccc1)C(=O)N[C@H](C(=O)N[C@@H](CS)C(=O)N[C@@H](Cc1c[nH]c2ccccc12)C(=O)N[C@@H](CC(C)C)C(=O)N[C@@H](CC(C)C)C(=O)N[C@@H](CC(=O)O)C(=O)N[C@@H](CCC(=O)O)C(N)=O)[C@@H](C)CC)C(=O)O` [compound 82] (H-H[dS]QGTFTSDK([γGlu-Palmitoyl])SKYLDEQAAKEFICWLLDE-NH2; N-terminus assumed), the “Activity at Glucagon Receptor % Relative Activity” value (glucagon receptor; Table 3C) is reported as 121%, the EC50 (GLP-1 receptor; Activity at GLP-1 Receptor EC50 [nM], Table 3C) is reported as 0.02 nM and the “Activity at GLP-1 Receptor % Relative Activity” value (GLP-1 receptor; Table 3C) is reported as 345%.
For `CCCCCCCCCCCCCCCC(=O)N[C@@H](CCC(=O)N[C@@H](CCC(=O)NCCCC[C@H](NC(=O)[C@H](CC(=O)O)NC(=O)[C@H](CO)NC(=O)[C@@H](NC(=O)[C@H](Cc1ccccc1)NC(=O)[C@@H](NC(=O)CNC(=O)[C@H](CCC(N)=O)NC(=O)[C@@H](CO)NC(=O)[C@@H](N)Cc1c[nH]cn1)[C@@H](C)O)[C@@H](C)O)C(=O)N[C@@H](CO)C(=O)N[C@@H](CCCCN)C(=O)N[C@@H](Cc1ccc(O)cc1)C(=O)N[C@@H](CC(C)C)C(=O)N[C@@H](CC(=O)O)C(=O)NC(C)(C)C(=O)N[C@@H](CCCNC(=N)N)C(=O)N[C@@H](C)C(=O)N[C@@H](C)C(=O)N[C@@H](CCC(N)=O)C(=O)N[C@@H](CC(=O)O)C(=O)N[C@@H](Cc1ccccc1)C(=O)N[C@H](C(=O)N[C@@H](CCC(N)=O)C(=O)N[C@@H](Cc1c[nH]c2ccccc12)C(=O)N[C@@H](CC(C)C)C(=O)N[C@@H](CCSC)C(=O)N[C@@H](CC(=O)O)C(=O)N[C@H](C(N)=O)[C@@H](C)O)C(C)C)C(=O)O)C(=O)O` [compound 44] (H-H[dS]QGTFTSDK([γGlu-γGlu-Palmitoyl])SKYLD[Aib]RAAQDFVQWLMDT-NH2; N-terminus assumed), the “Activity at Glucagon Receptor % Relative Activity” value (glucagon receptor; Table 3A) was 661% and the “Activity at GLP-1 Receptor % Relative Activity” value (GLP-1 receptor; Table 3A) was 524%.
`CCCCCCCCCCCCCCCC(=O)N[C@@H](CCC(=O)N[C@@H](CCC(=O)NCCCC[C@H](NC(=O)[C@H](CC(=O)O)NC(=O)[C@H](CO)NC(=O)[C@@H](NC(=O)[C@H](Cc1ccccc1)NC(=O)[C@@H](NC(=O)CNC(=O)[C@H](CCC(N)=O)NC(=O)C(C)(C)NC(=O)[C@@H](N)Cc1c[nH]cn1)[C@@H](C)O)[C@@H](C)O)C(=O)N[C@@H](CO)C(=O)N[C@@H](CCCCN)C(=O)N[C@@H](Cc1ccc(O)cc1)C(=O)N[C@@H](CC(C)C)C(=O)N[C@@H](CC(=O)O)C(=O)NC(C)(C)C(=O)N[C@@H](CCCNC(=N)N)C(=O)N[C@@H](C)C(=O)N[C@@H](C)C(=O)N[C@@H](CCC(N)=O)C(=O)N[C@@H](CC(=O)O)C(=O)N[C@@H](Cc1ccccc1)C(=O)N[C@H](C(=O)N[C@@H](CCC(N)=O)C(=O)N[C@@H](Cc1c[nH]c2ccccc12)C(=O)N[C@@H](CC(C)C)C(=O)N[C@@H](CCSC)C(=O)N[C@@H](CC(=O)O)C(=O)N[C@H](C(N)=O)[C@@H](C)O)C(C)C)C(=O)O)C(=O)O` [compound 42] (H-H[Aib]QGTFTSDK([γGlu-γGlu-Palmitoyl])SKYLD[Aib]RAAQDFVQWLMDT-NH2; N-terminus assumed) was tested, and the “Activity at Glucagon Receptor % Relative Activity” value (glucagon receptor; Table 3A) was 863%, the EC50 (GLP-1 receptor; Activity at GLP-1 Receptor EC50 [pM], Table 3A) was 0.005 nM and the “Activity at GLP-1 Receptor % Relative Activity” value (GLP-1 receptor; Table 3A) was 500%.
In the case of `CCCCCCCCCCCCCCCC(=O)N[C@@H](CCC(=O)NCCCC[C@H](NC(=O)[C@H](CC(=O)O)NC(=O)[C@H](CO)NC(=O)[C@@H](NC(=O)[C@H](Cc1ccccc1)NC(=O)[C@@H](NC(=O)CNC(=O)[C@H](CCC(N)=O)NC(=O)[C@@H](CO)NC(=O)[C@@H](N)Cc1c[nH]cn1)[C@@H](C)O)[C@@H](C)O)C(=O)N[C@@H](CO)C(=O)N[C@@H](CCCCN)C(=O)N[C@@H](Cc1ccc(O)cc1)C(=O)N[C@@H](CC(C)C)C(=O)N[C@@H](CC(=O)O)C(=O)N[C@@H](CCC(=O)O)C(=O)N[C@@H](CCC(N)=O)C(=O)N[C@@H](C)C(=O)N[C@@H](C)C(=O)N[C@@H](CCCCN)C(=O)N[C@@H](CCC(=O)O)C(=O)N[C@@H](Cc1ccccc1)C(=O)N[C@H](C(=O)N[C@@H](CS)C(=O)N[C@@H](Cc1c[nH]c2ccccc12)C(=O)N[C@@H](CC(C)C)C(=O)N[C@@H](CC(C)C)C(=O)N[C@@H](CC(=O)O)C(=O)N[C@H](C(=O)NCC(=O)NCC(=O)O)[C@@H](C)O)[C@@H](C)CC)C(=O)O` [compound 56], the “Activity at Glucagon Receptor % Relative Activity” value (glucagon receptor; Table 5) is reported as 272%, the EC50 (GLP-1 receptor; Activity at GLP-1 Receptor EC50 [nM], Table 5) is reported as 0.068 nM and the “Activity at GLP-1 Receptor % Relative Activity” value (GLP-1 receptor; Table 5) is reported as 125%.
In the case of `CC(C)C[C@H](NC(=O)[C@H](Cc1c[nH]c2ccccc12)NC(=O)[C@H](CS)NC(=O)[C@@H](NC(=O)[C@H](Cc1ccccc1)NC(=O)[C@H](CCC(=O)O)NC(=O)[C@H](CCCCN)NC(=O)[C@H](C)NC(=O)[C@H](C)NC(=O)[C@H](CCCCN)NC(=O)C(C)(C)NC(=O)[C@H](CC(=O)O)NC(=O)[C@H](CC(C)C)NC(=O)[C@H](Cc1ccc(O)cc1)NC(=O)[C@H](CCCCN)NC(=O)[C@H](CO)NC(=O)[C@H](Cc1ccc(O)cc1)NC(=O)[C@H](CC(=O)O)NC(=O)[C@H](CO)NC(=O)[C@@H](NC(=O)[C@H](Cc1ccccc1)NC(=O)[C@@H](NC(=O)CNC(=O)[C@H](CCC(N)=O)NC(=O)C(C)(C)NC(=O)[C@@H](N)Cc1c[nH]cn1)[C@@H](C)O)[C@@H](C)O)C(C)C)C(=O)N[C@@H](CC(C)C)C(=O)N[C@@H](CC(=O)O)C(=O)N[C@H](C(N)=O)[C@@H](C)O` [compound 64] (H-H[Aib]QGTFTSDYSKYLD[Aib]KAAKEFVCWLLDT-NH2; N-terminus assumed), the “Activity at Glucagon Receptor % Relative Activity” value (glucagon receptor; Table 2B) is reported as 79%, the EC50 (GLP-1 receptor; [1]) is reported as 0.012 nM and the “Activity at GLP-1 Receptor % Relative Activity” value (GLP-1 receptor; Table 2B) is reported as 308%.
`CCCCCCCCCCCCCCCC(=O)N[C@@H](CCC(=O)N[C@@H](CCC(=O)NCCCC[C@H](NC(=O)[C@H](CC(=O)O)NC(=O)[C@H](CO)NC(=O)[C@@H](NC(=O)[C@H](Cc1ccccc1)NC(=O)[C@@H](NC(=O)CNC(=O)[C@H](CCC(N)=O)NC(=O)[C@@H](CO)NC(=O)[C@@H](N)Cc1c[nH]cn1)[C@@H](C)O)[C@@H](C)O)C(=O)N[C@@H](CO)C(=O)N[C@@H](CCCCN)C(=O)N[C@@H](Cc1ccc(O)cc1)C(=O)N[C@@H](CC(C)C)C(=O)N[C@@H](CC(=O)O)C(=O)NC(C)(C)C(=O)N[C@@H](CCCCN)C(=O)N[C@@H](CCCNC(=N)N)C(=O)N[C@@H](C)C(=O)N[C@@H](CCCCN)C(=O)N[C@@H](CCC(=O)O)C(=O)N[C@@H](Cc1ccccc1)C(=O)N[C@H](C(=O)N[C@@H](CS)C(=O)N[C@@H](Cc1c[nH]c2ccccc12)C(=O)N[C@@H](CC(C)C)C(=O)N[C@@H](CC(C)C)C(=O)N[C@@H](CC(=O)O)C(=O)N[C@H](C(N)=O)[C@@H](C)O)C(C)C)C(=O)O)C(=O)O` [compound 63] (H-H[dS]QGTFTSDK([γGlu-γGlu-Palmitoyl])SKYLD[Aib]KRAKEFVCWLLDT-NH2; N-terminus assumed) was tested, and the “Activity at Glucagon Receptor % Relative Activity” value (glucagon receptor; Table 2B) was 115%, the EC50 (GLP-1 receptor; [1]) was 0.02 nM and the “Activity at GLP-1 Receptor % Relative Activity” value (GLP-1 receptor; Table 2B) was 345%.
